In patent US20080262445A1, “Transdermal Delivery of Hydrophobic Bioactive Agents” (DERMATRENDS, INC., priority 2004, published 2008):
Where two headings read alike, the source gives them in different places.

How the values were obtained:
[1] = Final pH of the patch; type: physicochemical; details: pH of the transdermal patch
[2] = type: in vitro ADME; details: human, pH 7.4
Protocol: An in vitro skin permeation study was conducted using one ondansetron transdermal patch. The formulations used to prepare these systems are listed in Table 1, which includes weight and percent weight of each component of the dried formulations. “PVPP’ refers to a commercially available polyvinyl polypyrrolidone powder, which was added in an amount sufficient to balance the liquid nature of other solubizing agents in order to maintain the physical integrity of the patch. Other suitable and generally inert powders that can be used will become apparent to those skilled in the art, given the present description. “Duratak” is a tradename and refers to a commercially available polyisobutylene adhesive liquid available from National Starch and Chemical.
Each formulation was coated on a release liner and dried in an oven at 65° C. for two hours to remove water and other solvents. […]
The in vitro permeation of ondansetron through human cadaver skin from these discs was performed using Franz diffusion cells with a diffusion area of 1 cm^2 and a receiver solution capacity of 8 ml. […] The receiver solution collected was analyzed by HPLC to determine the concentration of ondansetron. The cumulative amount of ondansetron that permeated across the human cadaver skin was calculated using the measured ondansetron concentrations in the receiver solutions, which were plotted versus time and shown in FIG. 1. […]

Cc1nccn1CC1CCc2c(c3ccccc3n2C)C1=O (stereo not drawn) [ondansetron, 1,2,3,9-tetrahydro-9-methyl-3-[(2-methyl-1H-imidazol-1-yl)methyl]-4H-carbazol-4-one]
final patch pH [1]: 4.7
cumulative amount of ondansetron that permeated through the skin ([2]; 24 h): 0.26 mg/cm^2
cumulative amount of ondansetron that permeated through the skin ([2]; 51 h): 0.51 mg/cm^2
